Data: patent US12509444B2, “Compounds and methods for CD73 modulation and indications therefor” (Plexxikon Inc., priority 2019, dated 2025)

Target: T1, Human CD73 (amino acid residues 27-549) (Homo sapiens, UniProt P21589)
T1 construct: Human CD73 (amino acid residues 27-549); His tag (N); made in house; host or cells: E. coli
T1 sequence (P21589 27-549): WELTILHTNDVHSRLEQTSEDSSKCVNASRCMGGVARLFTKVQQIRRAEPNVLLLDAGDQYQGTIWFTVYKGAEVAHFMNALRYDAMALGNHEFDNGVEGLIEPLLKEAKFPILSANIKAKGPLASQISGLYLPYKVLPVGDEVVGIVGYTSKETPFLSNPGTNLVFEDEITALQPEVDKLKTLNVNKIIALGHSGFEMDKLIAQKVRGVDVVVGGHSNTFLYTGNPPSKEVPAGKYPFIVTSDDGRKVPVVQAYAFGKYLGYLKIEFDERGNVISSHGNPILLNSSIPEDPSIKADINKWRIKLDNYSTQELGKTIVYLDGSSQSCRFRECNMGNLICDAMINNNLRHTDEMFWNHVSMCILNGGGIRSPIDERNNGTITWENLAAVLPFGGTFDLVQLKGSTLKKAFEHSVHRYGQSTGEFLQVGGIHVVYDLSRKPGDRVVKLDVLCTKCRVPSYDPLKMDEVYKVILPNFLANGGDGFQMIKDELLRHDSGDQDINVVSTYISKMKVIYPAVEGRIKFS
Assay: CD73 enzymatic assay (luciferase-based indirect assay, CellTiter-Glo)
Assay type: biochemical
Conditions: 0.4 nM CD73, 150 μM AMP, 1 hour at room temperature
Procedure: CD73 enzymatic activity was measured in a luciferase-based indirect assay using CellTiter-Glo® system from Promega. The luciferase reaction in the presence of ATP is inhibited by AMP, a primary substrate of CD73. Addition of CD73 enzyme to the reaction converts AMP to adenosine, and release the inhibition, producing a luminescent signal. Inhibition of CD73 leads to the decrease of this luminescent signal.
Human CD73 (amino acid residues 27-549) with N-Terminal His tag was purified in E. coli. All the assay components were prepared in 50 mM HEPEs buffer (pH 7.4) with 0.01% Tween® 20. The CD73 enzymatic assay was performed using 0.4 nM CD73 and 150 μM AMP. 9.5 μL of CD73 protein and 9.5 μL of AMP were added to the wells of a 384 well plate containing 1 μL of various concentrations of test compound or DMSO vehicle and incubated for 1 hour at room temperature. 16 wells containing CD73, AMP and 5% DMSO served as high control. 16 wells containing AMP and 5% DMSO served as low control. Enzymatic reaction was stopped and AMP level was measured indirectly by adding 5 μL of CellTiter-Glo® 2.0 reagent and 5 μL of ATP with a final concentration of 1 μM. Following incubation of the plate at room temperature for 30 minutes, luminescent signal was read on a Tecan plate reader. The percentage inhibition at individual concentrations relative to high and low controls was calculated. The data were analyzed by using nonlinear regression to generate IC50 values.

| IC50 [µM] | SMILES |
| --- | --- |
| 0.001 to 10 | O=C(Nc1ccc(C(F)(F)F)cc1)N[C@@H]1CCN(c2cn[nH]c(=O)c2Cl)C1 [P-0043, (R)-1-(1-(5-chloro-6-oxo-1,6-dihydropyridazin-4-yl)pyrrolidin-3-yl)-3-(4-(trifluoromethyl)phenyl)urea] |
| 0.001 to 10 | O=C(Nc1cccc(OC(F)F)c1)N[C@@H]1CCN(c2cn[nH]c(=O)c2Cl)C1 [P-0044, (R)-1-(1-(5-chloro-6-oxo-1,6-dihydropyridazin-4-yl)pyrrolidin-3-yl)-3-(3-(difluoromethoxy)phenyl)urea] |
| 10 to 100 | CN(C)c1ccc(NC(=O)N[C@@H]2CCN(c3cn[nH]c(=O)c3Cl)C2)cc1 [P-0045, (R)-1-(1-(5-chloro-6-oxo-1,6-dihydropyridazin-4-yl)pyrrolidin-3-yl)-3-(4-(dimethylamino)phenyl)urea] |
| 10 to 100 | O=C(N[C@@H]1CCN(c2cn[nH]c(=O)c2Cl)C1)OCc1ccccc1 [P-0048, benzyl (R)-(1-(5-chloro-6-oxo-1,6-dihydropyridazin-4-yl)pyrrolidin-3-yl)carbamate] |
| 0.001 to 10 | CC(C)COC(=O)N[C@@H]1CCN(c2cn[nH]c(=O)c2Cl)C1 [P-0050, isobutyl (R)-(1-(5-chloro-6-oxo-1,6-dihydropyridazin-4-yl)pyrrolidin-3-yl)carbamate] |
| 0.001 to 10 | O=C(NC1CC1)N[C@@H]1CCN(c2cn[nH]c(=O)c2Cl)C1 [P-0053, (R)-1-(1-(5-chloro-6-oxo-1,6-dihydropyridazin-4-yl)pyrrolidin-3-yl)-3-cyclopropylurea] |
| 0.001 to 10 | O=C(N[C@@H]1CCN(c2cn[nH]c(=O)c2Cl)C1)OC1CCOC1 (stereo partly drawn) [P-0055, tetrahydrofuran-3-yl ((R)-1-(5-chloro-6-oxo-1,6-dihydropyridazin-4-yl)pyrrolidin-3-yl)carbamate] |
| 0.001 to 10 | C[C@H]1CN(c2cn[nH]c(=O)c2Cl)C[C@@H]1NC(=O)OC(C)(C)C [P-0060, tert-butyl ((3R,4S)-1-(5-chloro-6-oxo-1,6-dihydropyridazin-4-yl)-4-methylpyrrolidin-3-yl)carbamate] |
| 0.001 to 10 | C[C@H]1CN(c2cn[nH]c(=O)c2Cl)C[C@@H]1NC(=O)NC1CCCC1 [P-0061, 1-((3R,4S)-1-(5-chloro-6-oxo-1,6-dihydropyridazin-4-yl)-4-methylpyrrolidin-3-yl)-3-cyclopentylurea] |
| 10 to 100 | CN(C(=O)OC(C)(C)C)C1CCN(c2cn[nH]c(=O)c2Cl)C1 (stereo not drawn) [P-0066, tert-butyl (1-(5-chloro-6-oxo-1,6-dihydropyridazin-4-yl)pyrrolidin-3-yl)(methyl)carbamate] |
| 10 to 100 | CN(C(=O)NC1CCCC1)C1CCN(c2cn[nH]c(=O)c2Cl)C1 (stereo not drawn) [P-0067, 1-(1-(5-chloro-6-oxo-1,6-dihydropyridazin-4-yl)pyrrolidin-3-yl)-3-cyclopentyl-1-methylurea] |
| 0.001 to 10 | CN(C(=O)NC1CCCCC1)C1CCN(c2cn[nH]c(=O)c2Cl)C1 (stereo not drawn) [P-0069, 1-(1-(5-chloro-6-oxo-1,6-dihydropyridazin-4-yl)pyrrolidin-3-yl)-3-cyclohexyl-1-methylurea] |
| 0.001 to 10 | CC(=O)N1CCC(NC(=O)N[C@@H]2CCN(c3cn[nH]c(=O)c3Cl)C2)CC1 [P-0071, (R)-1-(1-acetylpiperidin-4-yl)-3-(1-(5-chloro-6-oxo-1,6-dihydropyridazin-4-yl)pyrrolidin-3-yl)urea] |
| 0.001 to 10 | CCS(=O)(=O)N1CCC(NC(=O)N[C@@H]2CCN(c3cn[nH]c(=O)c3Cl)C2)CC1 [P-0072, (R)-1-(1-(5-chloro-6-oxo-1,6-dihydropyridazin-4-yl)pyrrolidin-3-yl)-3-(1-(ethylsulfonyl)piperidin-4-yl)urea] |
| 10 to 100 | N#CC1(NC(=O)NC2CCCC2)CCN(c2cn[nH]c(=O)c2Cl)C1 (stereo not drawn) [P-0073, 1-(1-(5-chloro-6-oxo-1,6-dihydropyridazin-4-yl)-3-cyanopyrrolidin-3-yl)-3-cyclopentylurea] |
| 10 to 100 | NC(=O)C1(NC(=O)OC2CCCCC2)CCN(c2cn[nH]c(=O)c2Cl)C1 (stereo not drawn) [P-0075, cyclohexyl (3-carbamoyl-1-(5-chloro-6-oxo-1,6-dihydropyridazin-4-yl)pyrrolidin-3-yl)carbamate] |
| 10 to 100 | CN(C(=O)NC1CCN(c2cn[nH]c(=O)c2Cl)C1)C1CCCCC1 (stereo not drawn) [P-0078, 3-(1-(5-chloro-6-oxo-1,6-dihydropyridazin-4-yl)pyrrolidin-3-yl)-1-cyclohexyl-1-methylurea] |
| 0.001 to 10 | CN(C(=O)NC1CCN(c2cn[nH]c(=O)c2Cl)C1)C1CCCC1 (stereo not drawn) [P-0079, 3-(1-(5-chloro-6-oxo-1,6-dihydropyridazin-4-yl)pyrrolidin-3-yl)-1-cyclopentyl-1-methylurea] |
| 10 to 100 | Cc1n[nH]c(=O)c(Cl)c1N1CC[C@@H](NC(=O)NC2CCCCC2)C1 [P-0080, (R)-1-(1-(5-chloro-3-methyl-6-oxo-1,6-dihydropyridazin-4-yl)pyrrolidin-3-yl)-3-cyclohexylurea] |
| 0.001 to 10 | Cc1c(N2CC[C@@H](NC(=O)OC3CCCCC3)C2)cn[nH]c1=O [P-0081, cyclohexyl (R)-(1-(5-methyl-6-oxo-1,6-dihydropyridazin-4-yl)pyrrolidin-3-yl)carbamate] |
| 10 to 100 | Cc1n[nH]c(=O)c(Cl)c1N1CC[C@@H](NC(=O)OC2CCCC2)C1 [P-0082, cyclopentyl (R)-(1-(5-chloro-3-methyl-6-oxo-1,6-dihydropyridazin-4-yl)pyrrolidin-3-yl)carbamate] |
| 10 to 100 | O=C(NCC1CC1)N[C@@H]1CCN(c2cn[nH]c(=O)c2Cl)C1 [P-0083, (R)-1-(1-(5-chloro-6-oxo-1,6-dihydropyridazin-4-yl)pyrrolidin-3-yl)-3-(cyclopropylmethyl)urea] |
| 0.001 to 10 | O=C(NC1CC1c1ccccc1)N[C@@H]1CCN(c2cn[nH]c(=O)c2Cl)C1 (stereo partly drawn) [P-0084, 1-((R)-1-(5-chloro-6-oxo-1,6-dihydropyridazin-4-yl)pyrrolidin-3-yl)-3-(2-phenylcyclopropyl)urea] |
| 0.001 to 10 | O=C(NC1C2CC3CC(C2)CC1C3)N[C@@H]1CCN(c2cn[nH]c(=O)c2Cl)C1 (stereo partly drawn) [P-0087, (R)-1-(adamantan-2-yl)-3-(1-(5-chloro-6-oxo-1,6-dihydropyridazin-4-yl)pyrrolidin-3-yl)urea] |
| 0.001 to 10 | COC(=O)C12CCC(NC(=O)O[C@@H]3CCN(c4cn[nH]c(=O)c4Cl)C3)(CC1)CC2 [P-0120, methyl (R)-4-((((1-(5-chloro-6-oxo-1,6-dihydropyridazin-4-yl)pyrrolidin-3-yl)oxy)carbonyl)amino)bicyclo [2.2.2]octane-1-carboxylate] |

| SMILES | IC50 [µM] |
| --- | --- |
| COc1ccc(OC(=O)N[C@@H]2CCN(c3cn[nH]c(=O)c3Cl)C2)cc1 [P-0049, 4-methoxyphenyl (R)-(1-(5-chloro-6-oxo-1,6-dihydropyridazin-4-yl)pyrrolidin-3-yl)carbamate] | 0.001 to 10 |
| CC(C)(C)OC(=O)NC1(C(=O)O)CCN(c2cn[nH]c(=O)c2Cl)C1 (stereo not drawn) [P-0070, 3-((tert-butoxycarbonyl)amino)-1-(5-chloro-6-oxo-1,6-dihydropyridazin-4-yl)pyrrolidine-3-carboxylic acid] | 100 to 1000 |
